Our source for the IC50 values is patent publication US20230357179A1, “RAF KINASE INHIBITORS AND METHODS OF USE THEREOF” (Deciphera Pharmaceuticals, LLC, priority 2021, published 2023).

pIC50: −log10 of the molar value.

T1 sequence (P15056 416-766): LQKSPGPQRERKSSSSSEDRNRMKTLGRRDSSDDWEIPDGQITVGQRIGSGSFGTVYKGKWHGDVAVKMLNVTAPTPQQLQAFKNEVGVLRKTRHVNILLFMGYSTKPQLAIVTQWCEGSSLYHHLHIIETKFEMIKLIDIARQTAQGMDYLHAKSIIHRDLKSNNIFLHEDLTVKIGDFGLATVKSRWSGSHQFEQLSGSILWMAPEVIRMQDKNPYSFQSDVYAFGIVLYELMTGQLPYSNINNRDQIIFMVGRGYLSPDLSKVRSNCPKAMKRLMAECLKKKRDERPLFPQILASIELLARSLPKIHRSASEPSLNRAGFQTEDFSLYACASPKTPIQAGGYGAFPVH
T2 sequence (P15056 416-766 V600E): as the sequence (P15056 416-766) above, with V185E counted along it

The first experiment has as its target T1, B-Raf kinase (Homo sapiens, UniProt P15056).
T1 construct: GST (N); purchased Sigma
Briefly: Biochemical assay for B-Raf.1 (coupled pyruvate kinase/lactate dehydrogenase). The settings on record: read-out: BRAF.1 IC50. In a few lines: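 Reaction rates over the 4–5 h window of a continuous 6 h, 30 °C read were converted to percent inhibition and fitted for IC50. B-Raf (0.13 nM) phosphorylated 30.1 nM MEK with 1 mM ATP; ADP coupled via PK/LDH to NADH loss at 340 nm, 1% DMSO final.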
As to `COC(=O)Nc1cc(-c2cc(-c3cc(NC(=O)NCCC4(C)CC4)cnc3C)cc(OCCO)n2)ccn1` [Example 151], the pIC50 was ≥ 7.00.

Consider `COC[C@H]1CCN(C(=O)Nc2cnc(C)c(-c3cc(OCCO)nc(-c4ccnc(NC(=O)OC)c4)c3)c2)C1` [Example 152], for which the pIC50 was 6.30 to 7.00.

As to `COC(=O)Nc1cc(-c2cnnc(-c3cc(NC(=O)NCCC(C)(C)OC)cnc3C)c2)ccn1` [Example 153], the pIC50 is 6.00 to 6.30.

As to `CNC(=O)c1cc(-c2cnnc(-c3cc(NC(=O)NCCC(C)(C)OC)cnc3C)c2)ccn1` [Example 154], the negative-log IC50 (pIC50) was < 6.00.

On to `COC(=O)Nc1cc(-c2cc(-c3cc(NC(=O)NCCC4COC4)c(F)cc3C)cc(OCCO)n2)ccn1` [Example 155], for which the pIC50 was ≥ 7.00.

`COC(=O)Nc1cc(-c2cc(-c3cc(NC(=O)NC4CC(C)(C)C4)cnc3C)cc(OCCO)n2)ccn1` [Example 156]: the pIC50 is ≥ 7.00.

For `COC(=O)Nc1cc(-c2cc(-c3cc(NC(=O)N[C@H]4C[C@](C)(F)C4)cnc3C)cc(OCCO)n2)ccn1` [Example 157], the pIC50 was ≥ 7.00.

For the compound `COC(=O)Nc1cc(-c2nc(OCCO)cc(-c3cc(NC(=O)NC4CC(C)(C)C4)c(F)cc3C)n2)ccn1` [Example 158], the pIC50 was ≥ 7.00.

Regarding `Cc1cc(F)c(NC(=O)NCCC(C)(C)F)cc1-c1ccnc(-c2ccnc(NC(=O)C3CC3)c2)c1` [Example 159], the pIC50 was ≥ 7.00.

Take `COC[C@@H]1CCN(C(=O)Nc2cnc(C)c(-c3cc(OCCO)nc(-c4ccnc(NC(=O)OC)c4)c3)c2)C1` [Example 160]: the pIC50 is 6.30 to 7.00.

Turning to `COC(=O)Nc1cc(-c2nc(OCCO)cc(-c3cc(NC(=O)NCCC(C)(C)F)c(F)cc3C)n2)ccn1` [Example 161], the pIC50 is ≥ 7.00.

A further experiment has as its target T2, B-Raf (V600E) kinase (Homo sapiens, UniProt P15056, V600E).
T2 construct: B-Raf (V600E) residues 416-766 with a; GST (N); purchased SignalChem
Briefly: Biochemical assay for B-Raf (V600E).1 (coupled pyruvate kinase/lactate dehydrogenase). Conditions: read-out: BRAF V600E.1 IC50. In a few lines: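 IC50 came from four-parameter sigmoidal fits of percent inhibition, using reaction rates over 3-4 h. Continuous A340 reading (6 h, 30 °C) of a pyruvate kinase/lactate dehydrogenase-coupled reaction: B-Raf V600E 0.03 nM, MEK 30.1 nM, ATP 1 mM, Tris pH 7.5, 1% DMSO.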
For the compound `COC(=O)Nc1cc(-c2cc(-c3cc(NC(=O)NCCC4(C)CC4)cnc3C)cc(OCCO)n2)ccn1` [Example 151], the pIC50 was ≥ 7.00.

Consider `COC[C@H]1CCN(C(=O)Nc2cnc(C)c(-c3cc(OCCO)nc(-c4ccnc(NC(=O)OC)c4)c3)c2)C1` [Example 152], for which the pIC50 is ≥ 7.00.

With `COC(=O)Nc1cc(-c2cnnc(-c3cc(NC(=O)NCCC(C)(C)OC)cnc3C)c2)ccn1` [Example 153], the pIC50 was ≥ 7.00.

`CNC(=O)c1cc(-c2cnnc(-c3cc(NC(=O)NCCC(C)(C)OC)cnc3C)c2)ccn1` [Example 154]: the pIC50 was ≥ 7.00.

As to `COC(=O)Nc1cc(-c2cc(-c3cc(NC(=O)NCCC4COC4)c(F)cc3C)cc(OCCO)n2)ccn1` [Example 155], the pIC50 was ≥ 7.00.

With `COC(=O)Nc1cc(-c2cc(-c3cc(NC(=O)NC4CC(C)(C)C4)cnc3C)cc(OCCO)n2)ccn1` [Example 156], the pIC50 was ≥ 7.00.

Regarding `COC(=O)Nc1cc(-c2cc(-c3cc(NC(=O)N[C@H]4C[C@](C)(F)C4)cnc3C)cc(OCCO)n2)ccn1` [Example 157], the pIC50 is ≥ 7.00.

As for `COC(=O)Nc1cc(-c2nc(OCCO)cc(-c3cc(NC(=O)NC4CC(C)(C)C4)c(F)cc3C)n2)ccn1` [Example 158], the pIC50 is ≥ 7.00.

For the compound `Cc1cc(F)c(NC(=O)NCCC(C)(C)F)cc1-c1ccnc(-c2ccnc(NC(=O)C3CC3)c2)c1` [Example 159], the pIC50 was ≥ 7.00.

`COC[C@@H]1CCN(C(=O)Nc2cnc(C)c(-c3cc(OCCO)nc(-c4ccnc(NC(=O)OC)c4)c3)c2)C1` [Example 160]: the pIC50 was ≥ 7.00.

As for `COC(=O)Nc1cc(-c2nc(OCCO)cc(-c3cc(NC(=O)NCCC(C)(C)F)c(F)cc3C)n2)ccn1` [Example 161], the pIC50 was ≥ 7.00.

The subject of a further experiment is A375 cells. Kind of experiment: A375 cell proliferation assay (1), resazurin, 96-well. The format is cell-based. The settings on record: Homo sapiens, A-375, inhibition of cell proliferation. In a few lines: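 Viability was read by resazurin fluorescence at 540 nm excitation and 600 nm emission, using a 440 μM solution added for 5–6 h at the end of culture. IC50 came from the curve fit.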
Regarding `COC(=O)Nc1cc(-c2cc(-c3cc(NC(=O)NCCC4(C)CC4)cnc3C)cc(OCCO)n2)ccn1` [Example 151], the pIC50 was 5.00 to 6.00.

On to `COC[C@H]1CCN(C(=O)Nc2cnc(C)c(-c3cc(OCCO)nc(-c4ccnc(NC(=O)OC)c4)c3)c2)C1` [Example 152], for which the pIC50 is 5.00 to 6.00.

Consider `COC(=O)Nc1cc(-c2cnnc(-c3cc(NC(=O)NCCC(C)(C)OC)cnc3C)c2)ccn1` [Example 153], for which the pIC50 was 5.00 to 6.00.

As for `CNC(=O)c1cc(-c2cnnc(-c3cc(NC(=O)NCCC(C)(C)OC)cnc3C)c2)ccn1` [Example 154], the pIC50 was 5.00 to 6.00.

Regarding `COC(=O)Nc1cc(-c2cc(-c3cc(NC(=O)NCCC4COC4)c(F)cc3C)cc(OCCO)n2)ccn1` [Example 155], the pIC50 is 5.00 to 6.00.

In the case of `COC(=O)Nc1cc(-c2cc(-c3cc(NC(=O)NC4CC(C)(C)C4)cnc3C)cc(OCCO)n2)ccn1` [Example 156], the pIC50 is 5.00 to 6.00.

In the case of `COC(=O)Nc1cc(-c2cc(-c3cc(NC(=O)N[C@H]4C[C@](C)(F)C4)cnc3C)cc(OCCO)n2)ccn1` [Example 157], the pIC50 is 5.00 to 6.00.

As for `COC(=O)Nc1cc(-c2nc(OCCO)cc(-c3cc(NC(=O)NC4CC(C)(C)C4)c(F)cc3C)n2)ccn1` [Example 158], the pIC50 was ≥ 7.00.

As to `Cc1cc(F)c(NC(=O)NCCC(C)(C)F)cc1-c1ccnc(-c2ccnc(NC(=O)C3CC3)c2)c1` [Example 159], the pIC50 was 5.00 to 6.00.

Consider `COC[C@@H]1CCN(C(=O)Nc2cnc(C)c(-c3cc(OCCO)nc(-c4ccnc(NC(=O)OC)c4)c3)c2)C1` [Example 160], for which the pIC50 was 5.00 to 6.00.

With `COC(=O)Nc1cc(-c2nc(OCCO)cc(-c3cc(NC(=O)NCCC(C)(C)F)c(F)cc3C)n2)ccn1` [Example 161], the pIC50 was 6.30 to 7.00.

The subject of another experiment is H2405 cells. Kind of experiment: H2405 cell proliferation assay (1), resazurin, 96-well. Conditions: Homo sapiens, NCI-H2405, inhibition of cell proliferation. The format is cell-based. How it is done: H2405 Cell Proliferation Assay (1)
H2405 cells (catalog #CRL-5944) are obtained from the American Type Culture Collect (ATTC, Manassas, VA). Briefly, cells were grown in RPMI 1640 supplemented with 5% characterized fetal bovine serum (Invitrogen, Carlsbad, CA) and 1% Penicillin/Streptomycin/L-Glutamine at 37° C., 5% CO2, and 95% humidity. Cells are expanded until reaching 70-95% confluency at which point they are subcultured or harvested for assay use. A serial dilution of test compound is dispensed into a 96-well black clear bottom plate in triplicate. Three thousand cells are added per well in 200 μL complete growth medium in the 96-well plate. Plates are incubated for 67-72 hours at 37° C., 5% CO2, and 95% humidity. At the end of the incubation, 40 μL of a 440 μM solution of resazurin (Sigma, St. Louis, MO) in PBS is added to each well of the plate and plates are incubated for an additional 5-6 hours at 37° C., 5% CO2, and 95% humidity. Plates are read on a Synergy2 or equivalent reader (Biotek, Winooski VT) using an excitation of 540 nm and an emission of 600 nm. Data is analyzed using Prism software (GraphPad, San Diego, CA) to calculate IC50 values.
`COC(=O)Nc1cc(-c2cc(-c3cc(NC(=O)NCCC4(C)CC4)cnc3C)cc(OCCO)n2)ccn1` [Example 151]: the pIC50 was 6.30 to 7.00.

For `COC[C@H]1CCN(C(=O)Nc2cnc(C)c(-c3cc(OCCO)nc(-c4ccnc(NC(=O)OC)c4)c3)c2)C1` [Example 152], the pIC50 is 5.00 to 6.00.

Regarding `COC(=O)Nc1cc(-c2cnnc(-c3cc(NC(=O)NCCC(C)(C)OC)cnc3C)c2)ccn1` [Example 153], the pIC50 is 5.00 to 6.00.

Consider `CNC(=O)c1cc(-c2cnnc(-c3cc(NC(=O)NCCC(C)(C)OC)cnc3C)c2)ccn1` [Example 154], for which the pIC50 was 5.00 to 6.00.

Turning to `COC(=O)Nc1cc(-c2cc(-c3cc(NC(=O)NCCC4COC4)c(F)cc3C)cc(OCCO)n2)ccn1` [Example 155], the pIC50 is 5.00 to 6.00.

With `COC(=O)Nc1cc(-c2cc(-c3cc(NC(=O)NC4CC(C)(C)C4)cnc3C)cc(OCCO)n2)ccn1` [Example 156], the pIC50 is 6.30 to 7.00.

On to `COC(=O)Nc1cc(-c2cc(-c3cc(NC(=O)N[C@H]4C[C@](C)(F)C4)cnc3C)cc(OCCO)n2)ccn1` [Example 157], for which the pIC50 is 5.00 to 6.00.

Regarding `COC(=O)Nc1cc(-c2nc(OCCO)cc(-c3cc(NC(=O)NC4CC(C)(C)C4)c(F)cc3C)n2)ccn1` [Example 158], the pIC50 was ≥ 7.00.

With `Cc1cc(F)c(NC(=O)NCCC(C)(C)F)cc1-c1ccnc(-c2ccnc(NC(=O)C3CC3)c2)c1` [Example 159], the pIC50 is 6.30 to 7.00.

On to `COC[C@@H]1CCN(C(=O)Nc2cnc(C)c(-c3cc(OCCO)nc(-c4ccnc(NC(=O)OC)c4)c3)c2)C1` [Example 160], for which the pIC50 is 5.00 to 6.00.

`COC(=O)Nc1cc(-c2nc(OCCO)cc(-c3cc(NC(=O)NCCC(C)(C)F)c(F)cc3C)n2)ccn1` [Example 161]: the pIC50 was ≥ 7.00.
